Data on three molecules can be found in patent EP0457910A1, “NOVEL GLUCOSAMINE DERIVATIVE AND LIPOSOME CONTAINING THE SAME AS MEMBRANE COMPONENT” (Japan Tobacco Inc., priority 1989, dated 1991).

In the data set the test system is 5-week-old ICR male mouse. The data set can be described thus: Acute toxicity No. 1: lethal toxicity test of the compounds, intraperitoneal. It counts as in vivo. The note with it: for dead individuals during the observation period / general condition after the administration / weight: i.p., mice. The text has this:
Novel glucosamine derivative [I] according to the present invention was used to perform a lethal toxicity test with respect to mice. The following compounds were used as to-be-tested substances. • ① 6-O-palmitoyl-D-glucosamine methylglycoside • ② 6,6'-di-O-palmitoyl-D-glucosamino-(l→4)-β-D-glucosamine methylglycoside • ③ Stearylamine (Comparative Example)
Each of the above compounds was suspended in a 0.5%-CMC·Na solution to prepare a to-be-tested solution. 1.0 mℓ of each to-be-tested solution was administered intraperitoneally to a 5-week-old ICR male mouse, and a mouse mortality state was observed. Note that 1.0 mℓ of a 0.5%-CMC·Na solution was similarly administered to a solvent control group.

For the molecule `CCCCCCCCCCCCCCCC(=O)OC[C@H]1OC(OC)[C@H](N)[C@@H](O)[C@@H]1O` (stereo partly drawn) [compound ①, 6-O-palmitoyl-D-glucosamine methylglycoside], the “dead individuals during the observation period” value is listed as “no dead individual was found”, the “general condition after the administration” value (from here on “general condition”) is recorded as “no significant change was found” and the weight entry is reported as “an increase in weight was found as in the control”. Also, the “Total Number of dead individuals” value (450 ng/kg i.p.) is given as 0/2. Besides, the “Number of dead individuals” value (450 ng/kg i.p., 1st day) is 0/2. The “Number of dead individuals” value (450 ng/kg i.p., 2nd day) is 0/2. Also, the “Number of dead individuals” value (450 ng/kg i.p., 3rd day) was 0/2. For the same molecule, under “450 ng/kg i.p., Day of test”, the “Number of dead individuals” value is 0/2. Also, where the note is “900 ng/kg i.p.”, the “Total Number of dead individuals” value is 0/2. Besides, the “Number of dead individuals” value (900 ng/kg i.p., 1st day) is listed as 0/2. For the same molecule, the “Number of dead individuals” value (900 ng/kg i.p., 2nd day) is 0/2. The “Number of dead individuals” value (900 ng/kg i.p., 3rd day) is listed as 0/2. In addition, the “Number of dead individuals” value (900 ng/kg i.p., Day of test) was 0/2.

Regarding `CCCCCCCCCCCCCCCC(=O)OC[C@H]1O[C@@H](O[C@H]2[C@H](O)[C@@H](N)C(OC)O[C@@H]2COC(=O)CCCCCCCCCCCCCCC)[C@H](N)[C@@H](O)[C@@H]1O` (stereo partly drawn) [compound ②, 6,6'-di-O-palmitoyl-D-glucosamino-(1→4)-β-D-glucosamine methylglycoside], the “dead individuals during the observation period” value is “no dead individual was found”, the “general condition” value is given as “no significant change was found” and the weight result is reported as “an increase in weight was found as in the control”. For the same molecule, under “450 ng/kg i.p.”, the “Total Number of dead individuals” value is on record as 0/1. For the same molecule, for the setting “450 ng/kg i.p., 1st day”, the “Number of dead individuals” value is given as 0/1. Besides, the “Number of dead individuals” value (450 ng/kg i.p., 2nd day) is 0/1. Further, the “Number of dead individuals” value (450 ng/kg i.p., 3rd day) is 0/1. Also, for the setting “450 ng/kg i.p., Day of test”, the “Number of dead individuals” value is on record as 0/1. Also, under “900 ng/kg i.p.”, the “Total Number of dead individuals” value is reported as 0/1. The “Number of dead individuals” value (900 ng/kg i.p., 1st day) is recorded as 0/1. Besides, the “Number of dead individuals” value (900 ng/kg i.p., 2nd day) is listed as 0/1. Also, the “Number of dead individuals” value (900 ng/kg i.p., 3rd day) was 0/1. Besides, the “Number of dead individuals” value (900 ng/kg i.p., Day of test) is on record as 0/1.

Take `CCCCCCCCCCCCCCCCCCN` [compound ③, Stearylamine, reference compound]: the “general condition” value was “a decrease in spontaneous motion was found immediately after the administration” and the weight entry was “the weight was gradually decreased to result in death”. Moreover, the “Total Number of dead individuals” value (250 ng/kg i.p.) is on record as 1/5. Also, the “Number of dead individuals” value (250 ng/kg i.p., 1st day) is on record as 0/5. Moreover, the “Number of dead individuals” value (250 ng/kg i.p., 2nd day) was 0/5. In addition, the “Number of dead individuals” value (250 ng/kg i.p., 3rd day) is 1/5. Moreover, the “Number of dead individuals” value (250 ng/kg i.p., Day of test) was 0/5. Besides, the “Total Number of dead individuals” value (500 ng/kg i.p.) is reported as 3/5. In addition, the “Number of dead individuals” value (500 ng/kg i.p., 1st day) is given as 0/5. For the same molecule, the “Number of dead individuals” value (500 ng/kg i.p., 2nd day) is recorded as 3/5. Further, where the note is “500 ng/kg i.p., 3rd day”, the “Number of dead individuals” value is reported as 0/2. The “Number of dead individuals” value (500 ng/kg i.p., Day of test) was 0/5. Besides, the “Total Number of dead individuals” value (1,500 ng/kg i.p.) is 4/4. Besides, the “Number of dead individuals” value (1,500 ng/kg i.p., 1st day) is 0/4. In addition, for the setting “1,500 ng/kg i.p., 2nd day”, the “Number of dead individuals” value was 1/4. Further, under “1,500 ng/kg i.p., 3rd day”, the “Number of dead individuals” value is listed as 3/3. For the same molecule, under “1,500 ng/kg i.p., Day of test”, the “Number of dead individuals” value is reported as 0/4.
